# Measured values from patent publication US20100098671A1, “COMPOSITION FOR PREVENTION OR TREATMENT OF BONE MARROW DAMAGE” (MODERN CELL & TISSUE TECHNOLOGIES INC., priority 2007, published 2010).
# No end group written: not given here.
# Experiments:
# Assay type in all cases: in vivo, C57b1/6 mice
# bone marrow cells = assay: Viable bone marrow cell count in gamma-irradiated mice
# Excerpt: (§1) In order to ascertain protective and regenerative effects of Substance-P on bone marrow, 8-week-old C57b1/6 mice were purchased as experimental animals and divided into three groups, each consisting of 6 animals (n=6): two experimental groups (administration of a test drug before and after induction of bone marrow damage) and a control group. For this purpose, bone marrow damage was induced by radiation in animals.
# (§2) For the group used to confirm bone marrow-protective effects of Substance-P, 0.1 nmol/g of Substance-P was injected into caudal vein of mice, 1 day prior to radiation. 24 hours later, animals were irradiated with a gamma irradiator at a dose of 4 Gy. 4 hours after irradiation, 0.1 nmol/g of Substance-P diluted in PBS was injected once more into caudal vein of mice. Substance-P was diluted in PBS prior to use thereof.
# (§3) For the group used to confirm bone marrow-regenerative effects of Substance-P, 0.1 nmol/g of Substance-P was intravenously administered to caudal veins of mice immediately after animals were irradiated with gamma rays. 24 hours later, Substance-P was intravenously administered once more to animals.
# (§4) Bone marrow cells were isolated from animals 3 and 7 days after irradiation. For this purpose, femurs were isolated from mice and defatted to obtain the femoral bones only. A medium was allowed to flow from one end of the bone to the other end thereof using a 26-gauge syringe. This procedure was repeated five times to ensure that bone marrow cells were completely extracted from the bone. The cells were pooled in a tube, and centrifuged at 1500 rpm for 5 min and washed two times with PBS. The viable cell count was performed and compared between the drug-administered groups (administration of Substance-P before and after irradiation) and the non-administered group.
# blood cells = assay: Viable blood cell count in gamma-irradiated mice; settings: Substance-P administered before or after radiation-induced bone marrow damage
# Excerpt: as §1, §2, §3
# Blood cells were isolated from animals 3 and 7 days after irradiation treatment was complete. For this purpose, whole blood (WB) was isolated from abdominal vena cava using a 26-gauge syringe. […]
# [1] = tested on: hematopoietic stem cell colony formation of bone marrow cells; assay: CFU assay of bone marrow cells from irradiated mice in HSC-CFU media
# Excerpt: as §1, §2, §3, §4
# When bone marrow cells and blood cells were prepared, the cells were inoculated onto 35 mm plates at a density of 3×10^3 bone marrow cells/plate and 5×10^6 blood cells/plate, respectively and cultured in hematopoietic stem cell-colony forming unit media (HSC-CFU media, available from Miltenyi). The cells were cultured without change of the culture medium for two weeks while a colony count was performed daily.
substance,measurement,setting,value
"Substance P (RPKPQQFFGLM; not fully specified; ends and bridges not checked; UniProt P20366 58-68, looked up) [Substance-P]",viable bone marrow cell count vs non-administered group,"bone marrow cells; Substance-P 0.1 nmol/g i.v. 1 day prior to and 4 h after 4 Gy irradiation, 3rd post-irradiation day",no significant difference
same,viable bone marrow cell count vs non-administered group,"bone marrow cells; Substance-P 0.1 nmol/g i.v. 1 day prior to and 4 h after 4 Gy irradiation, after 7 days",about two-fold higher
same,viable bone marrow cell count vs non-administered group,"bone marrow cells; Substance-P 0.1 nmol/g i.v. immediately after irradiation and 24 h later, 3rd post-irradiation day",no significant difference
same,viable bone marrow cell count vs non-administered group,"bone marrow cells; Substance-P 0.1 nmol/g i.v. immediately after irradiation and 24 h later, after 7 days",about 2.5 fold
same,number of blood cells vs non-administered group,blood cells,significantly higher
same,day from which colony formation was observable,[1]; Substance-P after irradiation,5 post-irradiation day
same,colony count vs non-administered group,"[1]; Substance-P after irradiation, 2-week culture, 14th post-irradiation day",about 3 fold
same,colony formation,"[1]; Substance-P after irradiation, 3rd post-irradiation day",no colony formation
same,colony count,"[1]; Substance-P after irradiation, 7th post-irradiation day",significantly increased
same,colony count vs non-administered group,"[1]; Substance-P prior to irradiation, 2-week culture, 14th post-irradiation day",about 9 fold
same,colony count vs non-administered group,"[1]; Substance-P prior to irradiation, 3rd post-irradiation day",higher colony counts
same,colony count vs non-administered group,"[1]; Substance-P prior to irradiation, 7th post-irradiation day",higher colony counts
same,colony count vs non-administered group,"[1]; Substance-P prior to irradiation, immediately after irradiation",higher colony counts
